SMILES strings stand for the structures. Structures can show the parent of a compound that is named as a salt. Bounds are passed on as bounds.

For the first data set, the target named is T1, IGF1R (Homo sapiens, UniProt P08069).
T1 construct: endogenous in cells
T1 sequence (P08069 31-1367): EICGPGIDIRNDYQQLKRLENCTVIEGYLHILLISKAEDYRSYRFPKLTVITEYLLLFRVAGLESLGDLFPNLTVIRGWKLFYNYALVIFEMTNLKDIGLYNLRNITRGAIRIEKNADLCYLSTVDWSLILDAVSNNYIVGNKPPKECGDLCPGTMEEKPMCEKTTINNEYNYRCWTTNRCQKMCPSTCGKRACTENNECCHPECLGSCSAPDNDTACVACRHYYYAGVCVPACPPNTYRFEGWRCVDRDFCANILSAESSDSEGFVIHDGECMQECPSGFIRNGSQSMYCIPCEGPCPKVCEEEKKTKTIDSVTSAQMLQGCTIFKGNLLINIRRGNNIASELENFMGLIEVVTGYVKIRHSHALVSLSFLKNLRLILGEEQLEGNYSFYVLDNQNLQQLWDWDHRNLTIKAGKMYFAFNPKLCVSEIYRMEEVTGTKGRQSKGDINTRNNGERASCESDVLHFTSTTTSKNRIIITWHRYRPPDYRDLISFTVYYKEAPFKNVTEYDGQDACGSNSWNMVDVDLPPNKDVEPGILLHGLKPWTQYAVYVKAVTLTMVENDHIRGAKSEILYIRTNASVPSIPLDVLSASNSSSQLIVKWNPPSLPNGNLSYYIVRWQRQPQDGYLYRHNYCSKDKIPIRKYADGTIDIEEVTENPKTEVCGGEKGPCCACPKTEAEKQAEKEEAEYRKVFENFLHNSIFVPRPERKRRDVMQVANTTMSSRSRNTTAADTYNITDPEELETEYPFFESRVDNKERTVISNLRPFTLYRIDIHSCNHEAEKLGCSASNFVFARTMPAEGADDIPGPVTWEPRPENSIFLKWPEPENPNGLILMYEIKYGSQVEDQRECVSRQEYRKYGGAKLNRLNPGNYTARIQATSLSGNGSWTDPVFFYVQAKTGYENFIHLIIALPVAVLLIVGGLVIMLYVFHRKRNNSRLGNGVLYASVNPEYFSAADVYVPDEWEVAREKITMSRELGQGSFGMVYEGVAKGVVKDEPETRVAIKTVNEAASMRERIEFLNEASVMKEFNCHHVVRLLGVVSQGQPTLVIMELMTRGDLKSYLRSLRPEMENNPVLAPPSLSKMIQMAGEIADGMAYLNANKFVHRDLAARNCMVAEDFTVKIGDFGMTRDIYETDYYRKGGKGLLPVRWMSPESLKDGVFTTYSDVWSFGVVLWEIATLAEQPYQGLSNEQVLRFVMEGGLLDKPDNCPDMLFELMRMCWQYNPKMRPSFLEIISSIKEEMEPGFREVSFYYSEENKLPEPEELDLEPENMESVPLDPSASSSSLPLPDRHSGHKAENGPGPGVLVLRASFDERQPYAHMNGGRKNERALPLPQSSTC
Description: Inhibition of IGF-1R (IC50): IGF1-stimulated IGF1R autophosphorylation in human tumour cells, Capture-ELISA or LUMINEX. Format: cell-based. The note with it: human tumour cells expressing IGF1R (for example MCF-7 or Calu-6); 45 min pre-treatment, IGF1 stimulation 5 min; read-out: IC50 (μM), IGF1R. On the procedure: Cultivated human tumour cells which express the IGF1 receptor (IGF1R) (for example MCF-7 or Calu-6) are stimulated using human IGF1, the natural ligand of IGF1R. The stimulation induces autophosphorylation of tyrosine residues in the cytoplasmatic IGF1R domain, which triggers signal transduction cascades, which result in apoptosis inhibition and cell proliferation.
The amount of phosphorylated IGF1R is determined by a receptor-specific Capture-ELISA or an analogous LUMINEX assay. The IGF1R from cell lysates is bound to a 96-well ELISA plate or LUMINEX beads (“capturing”) by means of a specific antibody, and the tyrosine phosphorylation is detected using a biotin-labelled anti-phosphotyrosine antibody and a streptavidin peroxidase conjugate by a chemoluminescence method or by means of a fluorescence-labelled anti-phosphotyrosine antibody, In order to determine the activity of kinase inhibitors, cells are pre-treated with increasing concentrations of these compounds for 45 min and subsequently stimulated using IGF1 for 5 min. As internal control, the biological activity of the ligand IGF1 is checked and a concentration series of an IGF1R reference inhibitor measured.
As for `NCCCCn1cc(-c2cccc(OCc3ccccc3)c2)c2c(N)nccc21` [Compound 68], the IC50 was determined as 20 µM.

As for `COc1cccc(-c2cc3c(NCc4ccccc4)ccnc3[nH]2)c1` [Compound 14], the IC50 came out at 10 µM.

Regarding `NCCn1cc(-c2cccc(OCc3ccccc3)c2)c2cnccc21` [Compound 72], the IC50 was found to be 25 µM.

With `NCCCn1cc(-c2cccc(OCc3ccccc3)c2)c2c(N)nccc21` [Compound 71], the IC50 is 4.8 µM.

Still in this data set, the particulars now being: human tumour cells expressing IGF1R (for example MCF-7 or Calu-6); 45 min pre-treatment, IGF1 stimulation 5 min; read-out: concentration at which the substance inhibits the kinase IGF-1R to the extent of 50%.
With `COc1cc(-c2cc3c(Nc4cnc5ccccc5c4)ccnc3[nH]2)cc(OC)c1OC` [Compound 1, quinolin-3-yl-[2-(3,4,5-trimethoxyphenyl)-1H-pyrrolo[2,3b]pyridin-4-yl]amine], the IC50 is 14 µM.

Test system in another data set: not given
Experiment: not given
Details: not given
The term melting point denotes the temperature of the solid-liquid transition. With `c1ccc(CCCOc2cccc(-c3cc4c(Nc5ccccn5)ccnc4[nH]3)c2)cc1` (as salt: HCl) [Compound 25], the melting point fell in the range of 175 to 176 °C.

Consider `COc1cccc(-c2c[nH]c3ccnc(Nc4cccnc4)c23)c1` [Compound 63], for which the melting point fell in the range of 177 to 178 °C.

Molecule `c1ccc(CCCOc2cccc(-c3cc4cccnc4[nH]3)c2)cc1` [Compound 30] yielded a melting point of 128 to 129 °C.

Molecule `COc1cc(-c2cc3c(Nc4cccnc4)ccnc3[nH]2)cc(OC)c1OC` (as salt: hydrochloride) (hydrate or solvate) [Compound 2] returned a melting point of 202 to 203 °C.

Regarding `COc1ccc(CNc2nccc3[nH]cc(-c4cccc(OC)c4)c23)cc1` (as salt: HCl) [Compound 42], the melting point lay within 226 to 227 °C.

Turning to `COc1cccc(-c2cc3c(NCCn4cccc4)ccnc3[nH]2)c1` (as salt: hydrochloride) [Compound 17], the melting point lay within 218 to 219 °C.

The molecule `COc1ccc(CNc2ccnc3[nH]c(-c4ccc(OC)cc4)cc23)cc1` (as salt: hydrochloride) [Compound 16] gave a melting point of 196 to 197 °C.

For the molecule `COc1cccc(-c2cn(C3CC(CNC(=O)c4ccccc4C(=O)O)C3)c3cc(Cl)ncc23)c1` (stereo not shown) [Compound 80], the melting point was in the range of 177 to 180 °C.

`COc1cc(-c2cc3c(Nc4cccc(C#N)c4)ccnc3[nH]2)cc(OC)c1OC` (as salt: hydrochloride) (hydrate or solvate) [Compound 11] came in with a melting point of 291 to 292.5 °C.

`COc1cccc(-c2cn(CCCNC(=O)c3ccccc3C(=O)O)c3ccnc(Cl)c23)c1` [Compound 50] displayed a melting point of 122 to 124 °C.

For `COc1cccc(-c2c([Si](C)(C)C)[nH]c3cc(Cl)ncc23)c1`, the melting point was 179 to 179.5 °C.

`Fc1ccccc1Nc1ccnc2[nH]c(-c3cccc(OCCCc4ccccc4)c3)cc12` (as salt: HCl) [Compound 26] gave a melting point of 155 to 156 °C.

On to `c1ccc(CCCOc2cccc(-c3cc4c(Nc5cccnc5)ccnc4[nH]3)c2)cc1` (as salt: HCl) [Compound 22], for which the melting point was in the range of 166 to 167.5 °C.

`COc1ccc(CNc2ccn(CCCCN)c3nc(-c4ccc(OC)cc4)cc2-3)cc1` (as salt: TFA) [Compound 36]: the melting point fell in the range of 127 to 127.5 °C.

Turning to `COc1cccc(-c2c[nH]c3ccnc(Cl)c23)c1` [Compound 46], the melting point lay in the range of 159.5 to 160 °C.

The molecule `COc1cccc(-c2c[nH]c3ccnc(Nc4ccccn4)c23)c1` [Compound 53] yielded a melting point greater than 299 °C.

Take `COc1ccc(CNc2ccnc3[nH]c(-c4cccc(OCc5ccccc5)c4)cc23)cc1` [Compound 32]: the melting point fell in the range of 218 to 219 °C.

`COc1cc(-c2cc3c(NCc4cccnc4)ccnc3[nH]2)cc(OC)c1OC` (as salt: hydrochloride) (hydrate or solvate) [Compound 8] yielded a melting point of 181.5 to 183 °C.

The molecule `COc1cccc(-c2cn(CCCCN3C(=O)c4ccccc4C3=O)c3ccnc(N)c23)c1` (as salt: TFA) [Compound 55] showed a melting point of 188 to 189 °C.

In the case of `COc1cccc(-c2cn(CCNC(=O)c3ccccc3C(=O)O)c3cc(Cl)ncc23)c1` [Compound 78], the melting point was 160 °C (dec.).

As to `COc1cccc(-c2cc3c(NCCCn4ccnc4)ccnc3[nH]2)c1` (as salt: hydrochloride) [Compound 12], the melting point lay in the range of 161 to 162 °C.

Consider `COc1cc(-c2cc3c(Nc4ccc(F)c(Cl)c4)ccnc3[nH]2)cc(OC)c1OC` (as salt: hydrochloride) [Compound 5], for which the melting point was in the range of 267.5 to 269 °C.

As to `COc1cc(-c2cc3c(Nc4cnccn4)ccnc3[nH]2)cc(OC)c1OC` (as salt: hydrochloride) (hydrate or solvate) [Compound 7], the melting point lay within 292 to 294 °C.

`COc1ccc(Nc2ccnc3[nH]c(-c4cc(OC)c(OC)c(OC)c4)cc23)cc1N1CCN(C)CC1` (as salt: hydrochloride) (hydrate or solvate) [Compound 3] returned a melting point of 78 to 80 °C.

As for `COc1ccc(-c2cc3cnccc3[nH]2)cc1` [Compound 75], the melting point fell in the range of 205 to 207 °C.

In turn, `C=CCNc1ccnc2[nH]c(-c3ccc(OC)cc3)cc12` (as salt: TFA) [Compound 35] returned a melting point of 189.5 to 190 °C.

With `COc1cccc(-c2cn(CCCCCNC(=O)c3ccccc3C(=O)O)c3cc(Cl)ncc23)c1` [Compound 82], the melting point lay in the range of 97 to 99 °C.

The molecule `COc1cccc(-c2c([Si](C)(C)C)n(CCCCN3C(=O)c4ccccc4C3=O)c3ccnc(Cl)c23)c1` (as salt: TFA) showed a melting point of 183 to 184 °C.

In turn, `Clc1nccc2[nH]cc(-c3cccc(OCc4ccccc4)c3)c12` [Compound 56] returned a melting point of 156 to 158 °C.

`Clc1cc2[nH]cc(-c3cccc(OCc4ccccc4)c3)c2cn1` [Compound 83] yielded a melting point of 225 to 228.5 °C.

Take `Fc1cccc(Nc2ccnc3[nH]c(-c4cccc(OCCCc5ccccc5)c4)cc23)c1` (as salt: HCl) [Compound 24]: the melting point lay in the range of 210 to 211.5 °C.

Turning to `COc1cccc(-c2cn(CCN3C(=O)c4ccccc4C3=O)c3ccnc(Cl)c23)c1` (as salt: TFA) [Compound 51], the melting point was 130 °C (dec.).

Turning to `C#CCCCCNc1ccnc2[nH]c(-c3ccc(OC)cc3)cc12` (as salt: hydrochloride) (hydrate or solvate) [Compound 20], the melting point fell in the range of 118 to 120 °C.

As for `COc1cc(-c2cc3c(Nc4cnc5ccccc5c4)ccnc3[nH]2)cc(OC)c1OC` (as salt: hydrochloride) [Compound 1, quinolin-3-yl-[2-(3,4,5-trimethoxyphenyl)-1H-pyrrolo[2,3b]pyridin-4-yl]amine], the melting point lay within 227 to 228.5 °C.

Molecule `COc1ccc(-c2cc3c(NC(=O)Nc4ccc(Cl)c(C(F)(F)F)c4)ccnc3[nH]2)cc1` (as salt: TFA) [Compound 34] returned a melting point of 141 to 142 °C.

`COc1cccc(-c2c[nH]c3cc(Cl)ncc23)c1` [Compound 77] yielded a melting point of 211 to 212 °C.

For `COc1cccc(-c2cn(CCCCN)c3ccnc(N)c23)c1` (as salt: TFA) [Compound 47], the melting point was 50 °C.

In the case of `COc1cccc(-c2cc3c(Nc4ccc(F)c(Cl)c4)ccnc3[nH]2)c1` (as salt: hydrochloride) [Compound 6], the melting point was 164 to 165 °C.

Molecule `COc1ccc(-c2cc3c(N(C(=O)c4ccc(F)c(Cl)c4)C(=O)c4ccc(F)c(Cl)c4)ccnc3[nH]2)cc1` (as salt: TFA) [Compound 33] showed a melting point of 142 to 144 °C.

In turn, `COc1ccc(CNc2nccc3[nH]c(-c4cccc(OCc5ccccc5)c4)cc23)cc1` (as salt: TFA) [Compound 48] yielded a melting point of 130 to 131 °C.

`COc1cccc(-c2cn(CCCN3C(=O)c4ccccc4C3=O)c3ccnc(Cl)c23)c1` (as salt: TFA) [Compound 49] displayed a melting point of 129 to 130 °C.

`COc1cccc(-c2c([Si](C)(C)C)[nH]c3ccnc(Cl)c23)c1`: the melting point was 137 °C.

`COc1cc(-c2cc3c(NCCc4cccnc4)ccnc3[nH]2)cc(OC)c1OC` (as salt: hydrochloride) (hydrate or solvate) [Compound 9] had a melting point of 105.5 to 106.5 °C.

Turning to `COc1cccc(-c2cn(CCCNC(=O)c3ccccc3C(=O)O)c3cc(Cl)ncc23)c1` [Compound 79], the melting point lay in the range of 100 to 101 °C.

In the case of `COc1cccc(-c2cc3c(NCc4ccccc4)ccnc3[nH]2)c1` (as salt: hydrochloride) [Compound 14], the melting point lay within 117 to 119 °C.

In turn, `c1ccc(COc2cccc(-c3cc4cnccc4[nH]3)c2)cc1` [Compound 70] displayed a melting point of 168 to 170 °C.

For the molecule `COc1cc(-c2cc3c(NCCc4ccccn4)ccnc3[nH]2)cc(OC)c1OC` (as salt: hydrochloride) (hydrate or solvate) [Compound 10], the melting point was 153 to 154 °C.

On to `COc1ccc(CNc2ccnc3[nH]c(-c4cccc(OCCCc5ccccc5)c4)cc23)cc1` [Compound 23], for which the melting point lay in the range of 164 to 165 °C.

Molecule `COc1cccc(-c2cc3c(NCCCN(C)C)ccnc3[nH]2)c1` (as salt: hydrochloride) (hydrate or solvate) [Compound 15] showed a melting point of 257 to 258 °C.

As for `COc1cccc(-c2c[nH]c3ccnc(NCc4cccnc4)c23)c1` [Compound 62], the melting point was 80 °C (dec.).

(Values after patent US8859581B2, “Azaheterocyclic compounds as kinase inhibitors” (Merck Patent GmbH, priority 2005, dated 2014).)
